# Reference: patent US9416181B2, “Compositions for cell culture and methods of using the same” (AbbVie Inc., priority 2013, dated 2016)
# Columns and labels:
# Format in all cases: cell-based, Chinese Hamster
# [1] = system: Cell Line 1 (CHO) expressing Antibody 1; assay: Cell culture performance (cell growth, viability, titer), Cell Line 1 shake flask fed-batch culture; details: for cell growth profile vs unsupplemented control: 3 concentrations in CDFM up to 0.5 g/L (genistein) or 1 g/L (rutin, naringin); for cell growth profile vs unsupplemented control / relative harvest titer vs unsupplemented control: shake flask
# Procedure: (§1) A recombinant Chinese Hamster Ovary (CHO) cell line (Cell Line 1) expressing a humanized monoclonal antibody (Antibody 1) was evaluated in 2 different cultures vessels (shaker flasks and 3 L laboratory-scale bioreactors). The cell line was of CHO DUX-B11 origin based on a DHFR (dihydrofolate reductase) expression system and cultured in a chemically defined basal media, and fed periodically with a chemically-defined feed media (CDFM). The media utilized throughout all of the experiments were chemically-defined, and both animal-component free, and protein-free. Each of the respective media were supplemented as needed with selected bioflavonoids to evaluate for their potential impact on the resulting acidic species profile. In preparation of the cultures, the cell lines were serially expanded through separate seed train inoculums to generate enough cells for inoculation. Process conditions utilized during the cultures were slightly different depending on the culture scale, but similar within each scale to the respective non-bioflavonoid supplemented control conditions. All bioflavonoids utilized were purchased from Sigma-Aldrich (St. Louis, Mo.).
# (§2) Viable cell density (VCD) and cell viability values were measured through trypan blue exclusion via Cedex automated cell counters (Roche Applied Science, Indianapolis, Ind.), glucose and lactate values were measured with a ABL-805 (Radiometer Medical, Denmark) blood gas analyzer. Offline pH, dissolved oxygen (DO), and pCO2 measurements were performed as needed with an ABL-805 (Radiometer Medical, Denmark) blood gas analyzer. Osmolality was measured as needed on a Multi-Osmette 2430 osmometer (Precision Systems, Natick, Mass.).
# Antibody titers were measured from crude cell culture harvests on a Poros A™ (Life Technologies, Carlsbad, Calif.) affinity column using an HPLC system operating with a low pH, step elution gradient with detection at 280 nm. Absolute concentrations were assigned with respect to reference standard calibration curves.
# (§3) In this Example, EGCG was added into the feed (cell culture medium) at the concentration range of 5 mg/L (low), 20 mg/L (mid) and 50 mg/L (high) in a shaker experiment to determine the impact of EGCG on product quality of a humanized monoclonal antibody (Antibody 1). Detailed cell culture conditions are as described in Table 1.
# (§4) However, it was not clear whether or not additional bioflavonoids would also have the same effects. To evaluate the impact of alternative bioflavonoids, fed-batch shake flask cultures were initiated with CDFM supplemented with 3 different concentrations of genistein, rutin, and naringin, in addition to EGCG. Cell growth, viability, as well as titers and acidic species variants were measured.
# (§5) To evaluate the impact of other bioflavonoids, fed-batch shake flask cultures were initiated with CDFM supplemented with multiple concentrations of rutin. Cell growth, viability, as well as titers and acidic species variants were measured and shown in FIGS. 14 and 15, respectively.
# [2] = system: Cell Line 1 (CHO) expressing Antibody 1; assay: Acidic species variants (WCX-10) of Antibody 1, Cell Line 1 shake flask fed-batch culture; details: shake flask
# Procedure: as §1
# (§6) Samples were analyzed using an HPLC system equipped with a ProPac WCX-10 analytical column (Thermo Scientific, Sunnyvale, Calif.). Approximately 100 μg of sample was loaded in 6% Buffer B (10 mM sodium phosphate, 500 mM NaCl, pH 5.5) and 94% Buffer A (10 mM sodium phosphate, pH 7.5). The column was run at a flow rate of 1.0 mL/min. The protein was eluted from the column by increasing the buffer B composition from 6% to 16% over 20 minutes. The protein peaks were measured using UV absorbance at 280 nm as the peaks eluted from the column. The column was regenerated using 100% buffer B followed be a re-equilibration period using initial condition before the injection of the next sample. Peaks eluting before the main peak were termed “acidic peaks” and peaks eluting after the main peak were called “basic peaks” (FIG. 2).
# as §3, §4
# (§7) Charge Heterogeneity via Weak Cation Exchange Chromatography-Samples were analyzed using an HPLC system equipped with a ProPac WCX-10 analytical column (Thermo Scientific, Sunnyvale, Calif.). Approximately 100 μg of sample was loaded in 6% Buffer B (10 mM sodium phosphate, 500 mM NaCl, pH 5.5) and 94% Buffer A (10 mM sodium phosphate, pH 7.5). The column was run at a flow rate of 1.0 mL/min. The protein was eluted from the column by increasing the buffer B composition from 6% to 16% over 20 minutes. The protein peaks were measured using UV absorbance at 280 nm as the peaks eluted from the column. The column was regenerated using 100% buffer B followed be a re-equilibration period using initial condition before the injection of the next sample. Peaks eluting before the main peak were termed ‘acidic peaks’ and peaks eluting after the main peak were called ‘basic peaks’ (FIG. 2).
# as §5
# [3] = system: Cell Line 1 (CHO) expressing Antibody 1; assay: Acidic species variants (WCX-10) of Antibody 1, Cell Line 1 3 L bioreactor fed-batch culture; details: 0.1 g/L in CDFM, Day 15 harvest
# Procedure: as §1, §6
# In the next experiment, lab-scale bioreactors were used to (1) confirm the shaker experiment results and (2) to determine whether higher concentration range of EGCG is suitable for supplementing into cell culture. EGCG was added to the feed of the batch culture at the concentrations of 20 mg/L (mid), 50 mg/L (high) and 125 mg/L (high+) and 250 mg/L (high++) in this reactor experiment.
# Cell Line 1 was evaluated in larger-scale feed batch cultures with the feed media supplemented with various bioflavonoids. […] By contrast, cell growth performance was slightly different for the 0.1 g/L EGCG supplemented condition. […] However, the cell viability remained high at 0.1 g/L EGCG. All cultures were successfully harvested on Day 15 post-inoculation. The harvest titers measured from the evaluated cultures were similar.
# Cell Line 1 was also evaluated in laboratory-scale fedbatch cultures with the feed media supplemented with various bioflavonoids. […] Cell growth performance was slightly different however with the 0.1 g/L EGCG supplemented condition. […] All cultures were able to be successfully harvested on Day 15 post-inoculation.
# [4] = system: Cell Line 4 (CHO) expressing DVD2; assay: Acidic species variants (WCX-10), Cell Line 4 shake flask culture
# Procedure: (§8) Four different recombinant Chinese Hamster Ovary (CHO) cell lines expressing four different recombinant glycoproteins were evaluated in either shaker flask culture, or 3 L laboratory scale bioreactors. Cell Line 1 was genetically engineered to express Antibody 1, Cell Line 2 was genetically engineered to express Antibody 2, Cell Line 3 was genetically engineered to express dual variable domain immunoglobulin 1 (DVD1) and Cell Line 4 was genetically engineered to express dual variable domain immunoglobulin 2 (DVD2).
# as §7, with “The column was regenerated using 100% buffer B followed be a re-equilibration period using initial condition before the injection of the next sample. Peaks eluting before the main peak were termed ‘acidic peaks’ and peaks eluting after the main peak were called ‘basic peaks’ (FIG. 2).” left out
# as §5
# [5] = system: Cell Line 4 (CHO) expressing DVD2
# Procedure: as §8
# as §2, with “pCO2 (Dissolved carbon dioxide)” for “pCO2”
# Protein A Affinity Chromatography-Antibody titers were measured from crude cell culture harvests on a Poros ATM (Life Technologies, Carlsbad, Calif.) affinity column using an HPLC system operating with a low pH, step elution gradient with detection at 280 nm. […]
Structure (SMILES),cell growth profile vs unsupplemented control [1],ratio of acidic region to unsupplemented control ([2]; 0.1 g/L in CDFM),ratio of acidic region to unsupplemented control ([2]; 1 g/L in CDFM),drop in absolute acidic species percentage points ([3]; 3 L bioreactor),relative total AR (ratio to Day 8 value of unsupplemented control) ([3]; bioreactor),concentration above which peak viable cell density dropped lower than unsupplemented control [1],relative harvest titer vs unsupplemented control ([1]; 0.01 g/L in CDFM),relative harvest titer vs unsupplemented control ([1]; 0.1 g/L in CDFM),"relative harvest titer vs unsupplemented control ([1]; 1 g/L in CDFM, statistically significant)","drop in harvest titer ([1]; CDFM supplemented to 1 g/L, Cell Line 1)","harvest cell viability ([1]; Chinese hamster, 1 g/L)",ratio of acidic region to unsupplemented control ([4]; 0.1 g/L in CDFM),ratio of acidic region to unsupplemented control ([4]; 1 g/L in CDFM),concentration above which peak viable cell density dropped lower than unsupplemented control [5],"increase in harvest titer ([5]; CDFM supplemented to 1 g/L, Cell Line 4)"
O=c1c(-c2ccc(O)cc2)coc2cc(O)cc(O)c12 [genistein],lower than the unsupplemented control condition,–,–,–,–,–,–,–,–,–,–,–,–,–,–
C[C@@H]1O[C@@H](O[C@H]2[C@H](Oc3cc(O)c4c(c3)O[C@H](c3ccc(O)cc3)CC4=O)O[C@H](CO)[C@@H](O)[C@@H]2O)[C@H](O)[C@H](O)[C@H]1O [naringin],lower than the unsupplemented control condition,–,–,–,–,–,–,–,–,–,–,–,–,–,–
C[C@@H]1O[C@@H](OC[C@H]2O[C@@H](Oc3c(-c4ccc(O)c(O)c4)oc4cc(O)cc(O)c4c3=O)[C@H](O)[C@@H](O)[C@@H]2O)[C@H](O)[C@H](O)[C@H]1O [rutin],–,0.97,0.65,5%,1.00,higher than 0.05 g/L,0.98,0.93,0.78,at most 22%,76%,0.75,0.69,> 100 µg/mL,9%
